Reference: patent US4056625A, “Pesticidal compositions containing benzodioxole derivatives and methods of combating pests” (priority 1972, dated 1977)
In brackets after ≈: the same amount, converted by molar mass.

Tests used:
[1] = system: adult female houseflies (Musca domestica); experiment: LC50 against adult female houseflies on filter papers (Example 70); format: in vivo; conditions: for LC50 value: adult female houseflies, 24 hours, 0-6 scale (mg/ft^2); for activity against houseflies (in words): compared with compound 5
Experimental: (§1) If complete kill was obtained at the highest dosage rate, the test was repeated using a logarithmically reducing dose regime until less than 50% mortality was recorded. The LC50 was then calculated from the line of best fit from the data plotted on log/provit analysis paper.
(§2) Similarly LC50 values were obtained against various pests as described in Examples 70-73 where, however, the LC50 values are abbreviated on a 0-6 scale where
LC50 values were obtained for each of Compounds 1, 2, 3, 4, 5 and 6 against adult female houseflies (Musca domestica), of the order Diptera. The tests were carried out by adding acetone solutions of the compounds to 9 cm diameter filter papers in the base of 9 cm diameter crystallising dishes, placing the houseflies in the dishes after the acetone had evaporated, closing the dishes with Petri dish lids and counting the mortality after 24 hours. The highest dosage rate employed was 1000 mg/ft^2 (10.65 g/m^2).

[2] = system: larvae of the sheep maggot fly (Lucilia sericata); experiment: LC50 against sheep maggot fly larvae on dental rolls (Example 71); format: in vivo; conditions: for LC50: Lucilia sericata, 24 h, read-out: LC50 value
Experimental: as §1, §2
Similarly, LC50 values were obtained for each of Compounds 1, 2, 3, 4, 5 and 6 against larvae of the sheep maggot fly (Lucilia sericata), of the order Diptera. The tests were carried out by placing newly hatched larvae on dental rolls contained in glass vials and soaked with 1 ml of blood serum containing the compound. The mortality was assessed after 24 hours. The highest dosage rate employed was 1000 ppm.

rats and mice = experiment: Mammalian toxicity (overall comparison); format: in vivo; conditions: compared with compound 5
Experimental: (§3) Mammalian toxicity was assessed by measuring the acute oral LD50 to rats and mice. Componds were dissolved or suspended in a 0.4% tragacanth solution and administered by stomach tube to the test animal. The mice used were 10 to 15 g weanlings of the Carshalton CFW strain whilst the rats were 30 to 40 g weanlings of Wystar strain. Three replicates per dosage rate were employed and the mortality was recorded daily for up to 5 days. The LD50 values were calculated as for those for insecticidal and acaricidal activity above.

[3] = Acute oral LD50 to mice (Example 76); design: species or system mouse (Carshalton CFW strain); conditions: in vivo, mouse, by stomach tube in 0.4% tragacanth, up to 5 days
Experimental: as §3

[4] = system: adult female houseflies (Musca domestica); experiment: Housefly mortality on treated filter papers (Examples 32-40); format: in vivo; conditions: 100 milligrams per square foot, after 24 hours
From the text: 9 centimeter diameter filter papers treated with aqueous acetone solutions of each of the compounds
at rates equivalent to 100 milligrams per square foot (100 mgm./0.09 m^2.) of active ingredient were placed in 9 centimeter diameter Petri dishes. Batches of adult female houseflies (Musca domestica) lightly anaesthetised with carbon dioxide were then introduced into the dishes and a glass lid placed over each.

[5] = Acute oral LD50 to rats (Example 76); format: in vivo, rat (Wystar strain); conditions: in vivo, po; rat male, by stomach tube in 0.4% tragacanth, up to 5 days
Experimental: as §3

rats = experiment: Acute oral LD50 to rats (Example 76); format: in vivo, rat (Wystar strain); conditions: rat female, by stomach tube in 0.4% tragacanth, up to 5 days
Experimental: as §3

Solubility = format: physicochemical; conditions: compared with compound 5
[6] = system: 2nd stage nymph of the German cockroach (Blattella germanica); experiment: LC50 against German cockroach nymphs in treated glass tubes (Example 69); format: in vivo
Experimental: Compounds 2 and 4 and also 2,2-dimethyl-1,3- benzodioxol-4-yl N-methylcarbamate(compound 5) and 2,2-dimethyl-1,3-benzodioxol-4-yl N-acetyl-N-methylcarbamate (compound 6) were tested for activity against the 2nd stage nymph of the German cockroach (Blattella germanica), of the order Orthoptera, by treating the walls of glass tubes (9.0 cm high × 4.5 cm diameter) with acetone solutions of the compounds and after the acetone had evaporated caging the insects in the tubes for 48 hours. The highest dosage rate employed was 50 mg/ft^2 (532 mg/m^2).
as §1
The LC50 values are abbreviated on a 0-6 scale where

[7] = system: adult red spider mites (Tetranychus telarius); experiment: LC50 against adult red spider mites on sprayed French beans (Example 73); format: in vivo; conditions: 48 h, read-out: LC50 value
Experimental: as §1, §2
Similarly, LC50 values were obtained for each of Compounds 1, 2, 4, 5 and 6 against adult red spider mites (Tetranychus telarius), of the order Acarina. The tests were carried out by spraying infected French beans with a 50% acetone water solution of the compound, containing 500 ppm of Lissapol NX as a wetting agent, and recording the mortality after 48 hours. The highest dosage rate employed was 1000 ppm which is equivalent to 10 lb/acre (11.20 kg/ha).

[8] = system: larvae of the cattle tick (Boophilus microplus); experiment: LC50 against cattle tick larvae (Example 72); format: in vivo; conditions: Rhipicephalus microplus, 24 hours, 0-6 scale (ppm)
Experimental: as §1, §2
Similarly, LC50 values were obtained for each of Compounds 2 and 4 against larvae of the cattle tick (Boophilus microplus), of the order Acarina. The tests were carried out evaporating 1 ml of an acetone solution of the compound on 9 cm diameter filter papers, folding the papers twice in half after drying to give quadrant shaped packets and sealing the tick larvae therein for 24 hours by means of a paper clip. The highest dosage rate employed was 1000 ppm.

[9] = system: sheep maggot fly (Lucila sericata); experiment: Persistency on sheep against sheep maggot fly; format: in vivo; conditions: compared with compound 5
[10] = system: German cockroaches (Blattella germanica); experiment: Persistency against German cockroaches on treated glass plates (Example 74); format: in vivo; conditions: 100 mg/ft^2 (1.065 g/m^2), 2nd stage nymphs, 7 day intervals until less than 50% mortality
Experimental: Persistency was measured against German cockroaches (Blattella germanica), or the order Orthoptera, by treating glass plates with acetone solutions of the compunds listed below to produce a deposit equivalent to 100 mg/ft^2 (1.065 g/m^2), and caging 2nd stage nymph cockroaches on these surfaces for 48 hours at 7 day intervals until less than 50% mortality was recorded.

[11] = system: yellow fever mosquito (Aedes aegypti); experiment: Persistency against yellow fever mosquito on treated glass plates (Example 75); format: in vivo; conditions: 100 mg/ft^2 (1.065 g/m^2), adult female mosquitos, 7 day intervals until less than 50% mortality
Experimental: Persistency was measured against yellow fever mosquito (Aedes aegypti), of the order Diptera, by treating glass plates with acetone solutions of the compounds listed below to produce a deposit equivalent to 100 mg/ft^2 (1.065 g/m^2), and caging adult female mosquitos on these surfaces for 24 hours at 7 day intervals until less than 50% mortality was recorded.

Structure (SMILES)	LC50 value [1]	activity against houseflies (in words) [1]	LC50 [2]	activity against sheep maggot fly (in words) ([2]; compared with compound 5)	mammalian toxicity (in words) (rats and mice)	LD50 at 120 h [3]	mortality of houseflies [4]	LD50 at 120 h [5]	Acute oral LD50, rat female (rats)	solubility in organic solvents (in words) (Solubility)	LC50 value ([6]; 2nd stage nymph German cockroach, 48 hours, 0-6 scale)	activity against cockroaches (in words) ([6]; cockroaches)	LC50 [7]	LC50 [8]	persistency on sheep against sheep maggot fly (in words) [9]	Persistency [10]	Persistency [11]
CCCC(=O)N(C)C(=O)Oc1cccc2c1OC(C)(C)O2 [Compound 3, 2,2-dimethyl-1,3-benzodioxol-4-yl N-butyryl-N-methylcarbamate]	4 (10-29 mg/ft^2 (107-310 mg/m^2))	as good or better activity against houseflies than does compound 5	3 to 9 µg/mL (≈ 10.2 to 30.7 µM)	as active as compound 5 against sheep maggot fly	lower mammalian toxicity than does compound 5	2000 mg/kg	all found to be dead	> 1000 mg/kg	> 1000 mg/kg body wt.	higher solubility in organic solvents than is compound 5	–	–	–	–	–	–	–
CCCCC(=O)N(C)C(=O)Oc1cccc2c1OC(C)(C)O2 [Compound 4, 2,2-dimethyl-1,3-benzodioxol-4-yl N-pentanoyl-N-methylcarbamate]	4 (10-29 mg/ft^2 (107-310 mg/m^2))	as good or better activity against houseflies than does compound 5	30 to 99 µg/mL (≈ 97.6 to 322 µM)	–	lower mammalian toxicity than does compound 5	170 mg/kg	–	–	–	higher solubility in organic solvents than is compound 5	5 (0.15-0.5 mg/ft^2 (1.6-5.3 mg/m^2))	outstandingly good activity against cockroaches	300 to 1000 µg/mL (≈ 976 to 3250 µM)	30 to 99 µg/mL (≈ 97.6 to 322 µM)	much better persistency on sheep	> 35 days	–
CC(=O)N(C)C(=O)Oc1cccc2c1OCO2 [Compound 1, 1,3-benzodioxol-4-yl N-acetyl-N-methylcarbamate]	5 (3-9 mg/ft^2 (32-106 mg/m^2))	as good or better activity against houseflies than does compound 5	30 to 99 µg/mL (≈ 126 to 417 µM)	–	lower mammalian toxicity than does compound 5	> 4000 mg/kg	all found to be dead	> 1000 mg/kg	> 1000 mg/kg body wt.	higher solubility in organic solvents than is compound 5	–	–	100 to 299 µg/mL (≈ 422 to 1260 µM)	–	–	–	35 days
